From US4782154A, “Isoquinoline derivatives” (Mitsui Toatsu Chemicals, Inc., priority 1986, dated 1988)

Tested on: Mongrel dogs
Assay: Recovery of LV dP/dtmax in propranolol-induced heart failure state, anesthetized dogs (Test Example 1)
Format: in vivo
Details: iv; for ED100: Canis lupus familiaris, dose required for recovering the reduction in LV dP/dtmax to the value before propranolol administration, anesthetized mongrel dogs; for Blood pressure: change in BP at ED100, variation coefficient relative to the values of the stable (heart failure) state; for Blood pressure / Number of heart beat: dogs; for Number of heart beat: change in HR at ED100, variation coefficient relative to the values of the stable (heart failure) state
Method: Mongrel dogs of either sex, weighing 8 to 12 kg, were anesthetized with sodium pentobarbital (30 mg/kg i.v.). The left ventricular pressure (LVP) was measured with a sensor tip transducer and the maximum rate of rise of LVP (LV dP/dtmax) was calculated by an electronic differentiator. Polyethylene cannulae were inserted into the femoral artery to measure systemic blood pressure (BP) and into the femoral veins for administration or infusion of chemicals. BP was measured with a pressure transducer and heart rate (HR) by a cardiotachometer from the pressure pulse. The respective parameters were simultaneously recorded on a multichannel polygraph.
To induce and maintain heart failure state, propranolol was administered in a bolus injection (4 mg/kg i.v.) followed by an infusion (0.1 mg/kg/min i.v.). […] The dose of tested chemicals required for recovering the reduction in the LV dP/dtmax to the value before the propranolol administration was determined and defined as an ED100. The changes in BP and HR at ED100 were expressed by the variation coefficient relative to the values of the stable state.

SMILES | ED100 [mg/kg] | Blood pressure [%] | Number of heart beat
CCc1[nH]c(=O)c(C(C)=O)c2c1CC(c1ccncc1)CC2 (stereo not drawn) [Example 1, 4-acetyl-1-ethyl-7-(4-pyridyl)-5,6,7,8-tetrahydro-3(2H)isoquinolinone] | 1 | -32.1 | +17.3%
CCCCc1[nH]c(=O)c(C(C)=O)c2c1CC(c1ccncc1)CC2 (stereo not drawn) [Example 2, 4-acetyl-1-butyl-7-(4-pyridyl)-5,6,7,8-tetrahydro-3-(2H)isoquinolinone] | 3 | -11.5 | +18.3%
CC(=O)c1c2c(c(C3CC3)[nH]c1=O)CC(c1ccncc1)CC2 (stereo not drawn) [Example 3] | 3 | -27.8 | +30.6%
CCC(=O)c1c2c(c(C)[nH]c1=O)CC(c1ccncc1)CC2 (stereo not drawn) [Example 4, 1-methyl-4-propionyl-7-(4-pyridyl)-5,6,7,8-tetrahydro-3(2H)isoquinolinone] | 3 | -18.0 | +26.2%
CCCC(=O)c1c2c(c(C)[nH]c1=O)CC(c1ccncc1)CC2 (stereo not drawn) [Example 5, 4-butylyl-1-methyl-7-(4-pyridyl)5,6,7,8-tetrahydro-3(2H)isoquinolinone] | 3 | -20.2 | +23.7%
CCCCC(=O)c1c2c(c(C)[nH]c1=O)CC(c1ccncc1)CC2 (stereo not drawn) [Example 6, 1-methyl-7-(4-pyridyl)5,6,7,8-tetrahydro-4-valeryl-3(2H)isoquinolinone] | 3 | -10.5 | +19.8%
Cc1[nH]c(=O)c(C(=O)c2ccccc2)c2c1CC(c1ccncc1)CC2 (stereo not drawn) [Example 7, 4-benzoyl-1-methyl-7-(4-pyridyl)5,6,7,8-tetrahydro-3(2H)isoquinolinone] | 3 | -28.3 | +29.6%
CCc1c2c(c(C)[nH]c1=O)CC(c1ccncc1)CC2 (stereo not drawn) [Example 8, 4-ethyl-1-methyl-7-(4-pyridyl)-5,6,7,8-tetrahydro-3(2H)isoquinolinone] | 0.03 | -22.5 | +25.3%
CCCc1c2c(c(C)[nH]c1=O)CC(c1ccncc1)CC2 (stereo not drawn) [Example 9, 1-methyl-4-propyl-7-(4-pyridyl)-5,6,7,8-tetrahydro-3(2H)isoquinolinone] | 0.3 | -16.6 | +14.4%
Cc1[nH]c(=O)c(C=O)c2c1CC(c1ccncc1)CC2 (stereo not drawn) [Example 10, 4-formyl-1-methyl-7-(4-pyridyl)-5,6,7,8-tetrahydro-3(2H)isoquinolinone] | 3 | -17.5 | +24.2%
Cc1[nH]c(=O)c(C)c2c1CC(c1ccncc1)CC2 (stereo not drawn) [Example 11, 1,4-dimethyl-7-(4-pyridyl)-5,6,7,8-tetrahydro-3(2H)isoquinolinone] | 0.3 | -28.5 | +21.0%
Cc1[nH]c(=O)c(C(C)O)c2c1CC(c1ccncc1)CC2 (stereo not drawn) [Example 12, 4-(1-hydroxyethyl)-1-methyl-7-(4-pyridyl)-5,6,7,8-tetrahydro-3(2H)isoquinolinone] | 3 | -19.7 | +22.5%
Cc1[nH]c(=O)c(CO)c2c1CC(c1ccncc1)CC2 (stereo not drawn) [Example 13, 4-(hydroxymethyl)-1-methyl-7-(4-pyridyl)-5,6,7,8-tetrahydro-3(2H)isoquinolinone] | 0.3 | -2.6 | +20.0%
Cc1[nH]c(=O)c(C(C)(C)O)c2c1CC(c1ccncc1)CC2 (stereo not drawn) [Example 14, 4-(2-(2-hydroxypropyl))-1-methyl-7-(4-pyridy)-5,6,7,8-tetrahydro-3(2H)isoquinolinone] | 0.1 | -9.3 | +32.6%
C=C(C)c1c2c(c(C)[nH]c1=O)CC(c1ccncc1)CC2 (stereo not drawn) [Example 15, 4-isopropenyl-1-methyl-7-(4-pyridyl)-5,6,7,8-tetrahydro-3(2H)isoquinolinone] | 0.03 | -16.4 | +28.6%
Cc1[nH]c(=O)c(C(F)(F)C(F)(F)F)c2c1CC(c1ccncc1)CC2 (stereo not drawn) [Example 16, 1-methyl-4-pentafluoroethyl-7-(4-pyridyl)-5,6,7,8-tetrahydro-3(2H)isoquinolinone] | 3 | -15.9 | +29.1%
CCc1c2c(c(C)[nH]c1=O)CC(c1ccccn1)CC2 (stereo not drawn) [Example 17, 4-ethyl-1-methyl-7-(2-pyridyl)-5,6,7,8-tetrahydro-3(2H)isoquinolinone] | 0.1 | -2.1 | +15.0%
Cc1[nH]c(=O)c(C(C)(C)O)c2c1CC(c1ccccn1)CC2 (stereo not drawn) [Example 18, 4-(2-(2-hydroxypropyl))-1-methyl-7-(2-pyridyl)-5,6,7,8-teterahydro-3(2H)isoquinolinone] | 0.3 | -8.3 | +30.1%
C=C(C)c1c2c(c(C)[nH]c1=O)CC(c1ccccn1)CC2 (stereo not drawn) [Example 19, 4-isopropenyl-1-methyl-7-(2-pyridyl)-5,6,7,8-teterahydro-3(2H)isoquinolinon] | 0.1 | -15.9 | +27.6%
